{"source": "patent US9688653B2", "about": "“Ethoxyphenyl thienyl compounds and methods for the treatment of bacterial infections” (Duke University, priority 2013, dated 2017)", "key": {"[1]": {"test_system": "panel of 68 receptors", "details": "for Inhibition across off-target panel: duplicate, upper bound over all targets"}, "[2]": {"test_system": "E. coli K1 strain UTI89", "assay": "microbe, parasite or virus in culture", "details": "for Selectivity index (CC50/IC50): versus bladder 5637 cells", "method_in_brief": "(§1)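 UTI89 cultures in LB with 0.5% DMSO were preincubated 2 hr at 37 °C with compounds (100 μM in screen), then with K1F phage a further 2 hr. Viability was read as Alamar Blue fluorescence. Phage-lysis inhibition is relative to plate bacterial controls; IC50 by 4-parameter fit locked at 0 and 100.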"}, "[3]": {"assay": "in vitro", "details": "human (5637 cells, CC50), Escherichia coli (UTI89, IC50), Fold Selective (CC50/IC50)", "method_in_brief": "as §1"}, "[4]": {"assay": "Hepatic microsome stability, human", "type": "in vitro ADME", "details": "37° C."}, "[5]": {"test_system": "K1 antigen of UTI89", "assay": "K1 antigen whole-cell dot blot with anti-K1 serum", "type": "cell-based, Escherichia coli", "details": "100 μM", "experimental": "K1 antigen dot blot. K1 antigen was detected by dot blot assays of culture extracts probed with anti-K1 H46 serum. The assay was performed as previously described. The experiment was repeated twice with similar results, and a representative dot blot is shown."}, "[6]": {"assay": "Hepatic microsome stability, mouse", "type": "in vitro ADME", "details": "37° C."}, "[7]": {"test_system": "capsule genes of UPEC", "assay": "Capsule gene transcript level after probe treatment", "type": "cell-based, Escherichia coli", "details": "UPEC treated with the probe"}, "[8]": {"assay": "Plasma protein binding, mouse", "type": "in vitro ADME"}, "[9]": {"test_system": "E. coli UTI89", "assay": "Human serum sensitization (MTT)", "type": "cell-based, Escherichia coli", "details": "50 μM compound, p=0.0067 versus control; listed as DU011", "experimental": "Human serum sensitization by capsule inhibitor treatment. Overnight cultures of UTI89 were diluted 1:100 and grown with or without 50 μM compound for approximately 1.5 hrs on a shaker at 37° C. Then 25 μL of anonymous, non-identified, sterile filtered pooled human serum (purchased from Equitech Bio) was added per 100 μL of growth media. This was returned to the shaker for another 3 hrs, after which 20 μL of 5 mg/mL MTT (3-(4,5-Dimethylthiazol-2-yl)-2,5-diphenyltetrazolium bromide) was added. MTT is reduced to purple formazan by bacterial reductase enzymes, thus measuring viable bacteria. This was shaken for another 15 min at 37° C. The sample was spun to remove the growth media, followed by two washes with PBS. The formazan crystals were dissolved in 100 μL of DMSO and measured at OD570."}}, "note": "“Also recorded” adds a separate entry of the source. Where two headings read alike, the source gives them in different places.", "data": [{"smiles": "CCOc1ccc(-c2cc(NC(=O)c3c(F)cccc3F)c(C(=O)O)s2)cc1", "note": "[KUC107784N-02]", "values": [{"measurement": "% Inh.", "setting": "[1]; 10 µM", "value": 6, "unit": "%"}, {"measurement": "% Inh.", "setting": "[1]; Calcium Channel L-Type, Benzothiazepine, rat, 10 μM", "value": 2, "unit": "%"}, {"measurement": "% Inh.", "setting": "[1]; Calcium Channel L-Type, Dihydropyridine, rat, 10 μM", "value": 32, "unit": "%"}, {"measurement": "% Inh.", "setting": "[1]; Dopamine D2S, hum, 10 μM", "value": 4, "unit": "%"}, {"measurement": "% Inh.", "setting": "[1]; Dopamine D42, hum, 10 μM", "value": 7, "unit": "%"}, {"measurement": "% Inh.", "setting": "[1]; GABAA, Flunitrazepam, Central, rat, 10 μM", "value": 16, "unit": "%"}, {"measurement": "% Inh.", "setting": "[1]; GABAA, Muscimol, Central, rat, 10 μM", "value": 9, "unit": "%"}, {"measurement": "% Inh.", "setting": "[1]; Glutamate, Kainate, rat, 10 μM", "value": 11, "unit": "%"}, {"measurement": "% Inh.", "setting": "[1]; Glutamate, NMDA, Agonism, rat, 10 μM", "value": 9, "unit": "%"}, {"measurement": "% Inh.", "setting": "[1]; Glutamate, NMDA, Glycine, rat, 10 μM", "value": "−1", "unit": "%"}, {"measurement": "% Inh.", "setting": "[1]; Glutamate, NMDA, Phencyclidine, rat, 10 μM", "value": 6, "unit": "%"}, {"measurement": "% Inh.", "setting": "[1]; Imidazoline I2, Central, rat, 10 μM", "value": "−1", "unit": "%"}, {"measurement": "% Inh.", "setting": "[1]; Nicotinic Acetylcholine, hum, 10 μM", "value": 13, "unit": "%"}, {"measurement": "% Inh.", "setting": "[1]; Phorbol Ester, mouse, 10 μM", "value": "−1", "unit": "%"}, {"measurement": "% Inh.", "setting": "[1]; Potassium Channel [KATP], ham, 10 μM", "value": 9, "unit": "%"}, {"measurement": "% Inh.", "setting": "[1]; Purinergic P2X, rabbit, 10 μM", "value": "−2", "unit": "%"}, {"measurement": "% Inh.", "setting": "[1]; Purinergic P2Y, rat, 10 μM", "value": 8, "unit": "%"}, {"measurement": "% Inh.", "setting": "[1]; Rolipram, rat, 10 μM", "value": 9, "unit": "%"}, {"measurement": "% Inh.", "setting": "[1]; Thyroid Hormone, rat, 10 μM", "value": "−3", "unit": "%"}, {"measurement": "% Inh.", "setting": "[1]; Transporter, GABA, rat, 10 μM", "value": 10, "unit": "%"}]}, {"smiles": "CCOc1ccc(-c2cc(NC(=O)c3c(F)cccc3F)c(C(=O)O)s2)cc1", "note": "[ML317, 3-(2,6-difluorobenzamido)-5-(4-ethoxyphenyl)thiophene-2-carboxylic acid]", "values": [{"measurement": "inhibition at 100 µM", "setting": "[2]; Escherichia coli, read-out: % Inhibition at 100 μM", "value": 9.12, "unit": "%"}, {"measurement": "IC50", "setting": "[2]; Escherichia coli, read-out: K1 Capsule IC50, commercial sample, SID 103147605", "value": "4.5 ± 2.4", "unit": "µM"}, {"measurement": "IC50", "setting": "[2]; Escherichia coli, read-out: K1 Capsule IC50, synthesized sample, SID 126497311", "value": "1.89 ± 1.56", "unit": "µM"}, {"measurement": "IC50", "setting": "[2]; Escherichia coli, read-out: K1 phage IC50, first round of synthetic analogues, n = 3", "value": 1.89, "unit": "µM"}, {"measurement": "IC50", "setting": "[2]; Escherichia coli, read-out: K1 phage IC50, purchased analogue series, n = 3", "value": 4.5, "unit": "µM"}, {"measurement": "Selectivity (Cyt./K1)", "setting": "[2]; first round of synthetic analogues", "value": 27.3}, {"measurement": "Selectivity (Cyt./K1)", "setting": "[2]; purchased analogue series", "value": 10.49}, {"measurement": "Selectivity index (CC50/IC50)", "setting": "[2]", "value": "> 10"}, {"measurement": "Selectivity index (CC50/IC50)", "setting": "[2]; listed as CID 23602075", "value": 10.49}, {"measurement": "selectivity ratio", "setting": "[3]; commercial sample, SID 103147605", "value": 10.5}, {"measurement": "selectivity ratio", "setting": "[3]; synthesized sample, SID 126497311", "value": 27.3}, {"measurement": "Hepatic Microsome Stability, % remaining at 1 hr", "setting": "[4]", "value": 89.6, "unit": "% remaining"}, {"measurement": "Inhibition across off-target panel", "setting": "[1]; 10 μM", "value": "< 50", "unit": "%"}, {"measurement": "Inhibition across off-target panel", "setting": "[1]; 10 μM, listed as DU011, 10 µM", "value": "< 32", "unit": "%"}, {"measurement": "Whole-cell anti-K1 dot blot reactivity", "setting": "[5]", "value": "reduces K1 reactive material to levels comparable to those of genetic capsule mutants"}, {"measurement": "Hepatic Microsome Stability, % remaining at 1 hr", "setting": "[6]", "value": 74.3, "unit": "% remaining"}, {"measurement": "Transcript for the capsule genes from each of the two major promoters", "setting": "[7]", "value": "significantly reduced transcript"}, {"measurement": "Plasma Protein Binding (% Bound)", "setting": "[8]; 1 μM", "value": 98.97, "unit": "% Bound"}, {"measurement": "Plasma Protein Binding (% Bound)", "setting": "[8]; 10 μM", "value": 99.31, "unit": "% Bound"}, {"measurement": "Sensitivity of UTI89 to pooled human serum (MTT)", "setting": "[9]", "value": "further increased serum-mediated killing; also recorded: significantly more sensitive"}]}]}
